Measurements published in ChEMBL document CHEMBL1201862, “PubChem BioAssay data set” (2004).
One block for each compound: values may come before it. Calls of active or inactive are those of the source.

Experiments:
[1] = biological target: Ubiquitin carboxyl-terminal hydrolase BAP1 (Homo sapiens, UniProt Q92560); assay: inhibition of BAP1 ubiquitin hydrolase activity – biochemical, dose response (AID 714); assay type: functional
[2] = activation of miR-122 Renilla sensor silencing – cell-based, Huh7 psiCHECK-miR122, Renilla luciferase, cherry-picked, dose response (AID 651956); assay type: functional;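 note: huh7 hepatoma cells stably carrying a psiCHECK-2 miR-122 sensor plasmid; renilla luciferase signal reporting endogenous miR-122 activity after 48 h compound exposure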
[3] = biological target: T1, Rac GTPase-activating protein 1 (Homo sapiens, UniProt Q9H0H5); assay: blockers of MgcRacGAP-driven Rac1 GTP hydrolysis – biochemical, ADP Hunter fluorescence, primary and confirmatory, confirmation (AID 624330); assay type: functional
T1 sequence (Q9H0H5 whole entry): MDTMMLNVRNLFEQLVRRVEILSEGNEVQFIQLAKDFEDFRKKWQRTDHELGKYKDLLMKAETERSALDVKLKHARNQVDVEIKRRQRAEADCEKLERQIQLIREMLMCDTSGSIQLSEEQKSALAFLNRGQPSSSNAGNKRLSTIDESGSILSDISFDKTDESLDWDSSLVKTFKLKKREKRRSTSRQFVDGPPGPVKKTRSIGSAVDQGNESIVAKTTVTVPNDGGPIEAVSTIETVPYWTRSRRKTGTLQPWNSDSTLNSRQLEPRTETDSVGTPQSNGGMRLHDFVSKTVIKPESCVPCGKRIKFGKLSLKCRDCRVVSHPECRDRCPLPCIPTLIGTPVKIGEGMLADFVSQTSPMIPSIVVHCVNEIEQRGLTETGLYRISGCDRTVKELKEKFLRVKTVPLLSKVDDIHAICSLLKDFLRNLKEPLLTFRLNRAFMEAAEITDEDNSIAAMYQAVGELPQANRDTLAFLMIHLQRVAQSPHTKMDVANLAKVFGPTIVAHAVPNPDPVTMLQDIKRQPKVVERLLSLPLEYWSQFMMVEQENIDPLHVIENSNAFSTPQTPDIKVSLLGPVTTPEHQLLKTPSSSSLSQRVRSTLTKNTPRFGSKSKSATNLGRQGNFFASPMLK

[4] = general mammalian cell viability loss – inhibitor set, cherry-pick, set 2, cytotoxicity control for miR-122 modulator project, dose response (AID 720697); assay type: functional, cell-based
[5] = biological target: Delta-type opioid receptor (Homo sapiens, UniProt P41143); assay: Counterscreen for agonists of heterodimerization of the mu 1 (OPRM1) and delta 1 (OPRD1) opioid receptors: Luminescence-based cell-based high throughput dose response assay to identify agonists of OPRD1 homodimerization. [Related pubchem assays (depositor defined):AID504326, AID504355, AID504692, AID504904, AID504905]; assay type: functional
Beta Lactamase = Beta Lactamase (Pseudomonas aeruginosa, UniProt Q932Y6); assay: BLA reporter interference, concentration series – BLA reporter cells, FRET fluorescence, artefact control for NOD2-RIPK2 interaction inhibitor project, dose response (AID 651552); assay type: functional, cell-based
[6] = biological target: 5-hydroxytryptamine receptor 5A (Homo sapiens, UniProt P47898); assay: Counterscreen for agonists of OPRM1-OPRD1 heterodimerization: luminescence-based cell-based high throughput dose response assay to identify agonists of 5-hydroxytryptamine (serotonin) 5A receptor (HTR5A). [Related pubchem assays (depositor defined):AID504326, AID504355, AID504692, AID504904, AID504905]; assay type: functional
[7] = Fluorescence-based cell-based high throughput dose response assay for inhibitors of the interaction of nucleotide-binding oligomerization domain containing 2 (NOD2) and the receptor-interacting serine-threonine kinase 2 (RIPK2).; assay type: functional; conditions: Homo sapiens
[8] = biological target: E3 ubiquitin-protein ligase UHRF1 (Homo sapiens, UniProt Q96T88); assay: Counterscreen for inhibitors of 5-meCpG-binding domain protein 2 (MBD2): TRFRET-based biochemical high throughput dose response assay to identify inhibitors of binding of ubiquitin-like with PHD and ring finger domains 1 (UHRF1) to methylated oligonucleotide.
[9] = viability loss in HeLa cells – cytotoxicity control for MgcRacGAP inhibitor project, dose response (AID 624300); assay type: functional
Mu-type opioid receptor = Mu-type opioid receptor (Homo sapiens, UniProt P35372); assay: Counterscreen for agonists of heterodimerization of the mu 1 (OPRM1) and delta 1 (OPRD1) opioid receptors: Luminescence-based cell-based high throughput dose response assay to identify agonists of OPRM1 homodimerization.; assay type: functional;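 note: U2OS cells expressing OPRM1 and beta-arrestin as split beta-galactosidase partners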
[10] = IGROV1 cell killing – plate reader, dry powder samples, PAX8 inhibitor project, dose response (AID 743043); assay type: functional, cell-based; conditions: IGROV-1
[11] = OVCAR-3 cell viability loss – plate reader, dry powder samples, PAX8 inhibitor project, dose response (AID 743044); assay type: functional, cell-based
[12] = OVCAR8 cell viability loss – plate reader, dry powder samples, PAX8 project, dose response (AID 743197); assay type: functional, cell-based; conditions: OVCAR-8
Paired box protein Pax-8 = Paired box protein Pax-8 (Homo sapiens, UniProt Q06710); assay: PAX8 transcriptional activity inhibition in RMG-I – RMG-I cells, luciferase, cherry-pick, dose response (AID 687027); assay type: functional, cell-based;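 note: luciferase reporter driven by Pax8 target thyroperoxidase promoter measured by SteadyGlo luminescence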
[13] = Potency on glucagon-like peptide 1 release, dose-response in NCI-H716 cell line, half maximal inhibitory concentration (AID 1117344); assay type: functional, cell-based
[14] = glucagon-like peptide-1 release potency in STC-1, concentration-response, half-maximal inhibitory concentration in the STC-1 line (AID 1117345); assay type: functional, cell-based
[15] = biological target: RNA-editing ligase 1, mitochondrial (Trypanosoma brucei brucei, UniProt P86926); assay: inhibition of trypanosome RNA editing ligase – biochemical, fluorescence, Trypanosoma brucei, dose response (AID 1117295); assay type: functional
[16] = Dd2 parasite growth inhibition in erythrocytes – SYBR Green, dry powder samples, set 9, dose response (AID 1159568); assay type: functional, cell-based
[17] = MITF: Counter assay: A375 proliferation Measured in Cell-Based System Using Plate Reader - 2084-03_Inhibitor_Dose_DryPowder_Activity_Set8.; assay type: functional; conditions: A-375
[18] = inhibitors of TRPM1-promoter reporter in SK-MEL-5 – cell-based, luciferase, dry powder, set 9, MITF inhibitor project, dose response (AID 651588); assay type: functional
[19] = MITF Orthogonal Assay: MALME3 CTG Assay Measured in Cell-Based System Using Plate Reader - 2084-04_Inhibitor_Dose_DryPowder_Activity_Set6.; assay type: functional; conditions: MALME-3
[20] = growth inhibition of SK-MEL-5 melanoma cells – cell-based, CellTiter-Glo luminescence, dry powder, set 8, orthogonal assay for MITF inhibitor project, dose response (AID 651586); assay type: functional
[21] = MITF Orthogonal Assay: SK-MEL-5 CTG Assay Measured in Cell-Based System Using Plate Reader - 2084-02_Inhibitor_Dose_DryPowder_Activity_Set7.; assay type: functional
[22] = cytotoxicity in MITF-independent A375 cells – cell-based, CellTiter-Glo luminescence, dry powder, set 9, counter-screen for MITF modulator project, dose response (AID 651591); assay type: functional; conditions: A-375
[23] = growth inhibition of MALME3 cells – cell-based, CellTiter-Glo luminescence, dry powder, set 5, orthogonal assay for MITF inhibitor project, dose response (AID 651584); assay type: functional; conditions: MALME-3
[24] = inhibitors of TRPM1-promoter reporter in SK-MEL-5 – cell-based, luciferase, dry powder, set 8, MITF inhibitor project, dose response (AID 624430); assay type: functional
[25] = IC50 of insulin release inhibition, rat insulinoma INS-1E line, 5 mM glucose, cell-based (AID 1117331); assay type: functional
cells = assay type: functional, cell-based; conditions: INS-1E

Chain of E3 ubiquitin-protein ligase UHRF1 (Q96T88 whole entry, the tested form may be a part): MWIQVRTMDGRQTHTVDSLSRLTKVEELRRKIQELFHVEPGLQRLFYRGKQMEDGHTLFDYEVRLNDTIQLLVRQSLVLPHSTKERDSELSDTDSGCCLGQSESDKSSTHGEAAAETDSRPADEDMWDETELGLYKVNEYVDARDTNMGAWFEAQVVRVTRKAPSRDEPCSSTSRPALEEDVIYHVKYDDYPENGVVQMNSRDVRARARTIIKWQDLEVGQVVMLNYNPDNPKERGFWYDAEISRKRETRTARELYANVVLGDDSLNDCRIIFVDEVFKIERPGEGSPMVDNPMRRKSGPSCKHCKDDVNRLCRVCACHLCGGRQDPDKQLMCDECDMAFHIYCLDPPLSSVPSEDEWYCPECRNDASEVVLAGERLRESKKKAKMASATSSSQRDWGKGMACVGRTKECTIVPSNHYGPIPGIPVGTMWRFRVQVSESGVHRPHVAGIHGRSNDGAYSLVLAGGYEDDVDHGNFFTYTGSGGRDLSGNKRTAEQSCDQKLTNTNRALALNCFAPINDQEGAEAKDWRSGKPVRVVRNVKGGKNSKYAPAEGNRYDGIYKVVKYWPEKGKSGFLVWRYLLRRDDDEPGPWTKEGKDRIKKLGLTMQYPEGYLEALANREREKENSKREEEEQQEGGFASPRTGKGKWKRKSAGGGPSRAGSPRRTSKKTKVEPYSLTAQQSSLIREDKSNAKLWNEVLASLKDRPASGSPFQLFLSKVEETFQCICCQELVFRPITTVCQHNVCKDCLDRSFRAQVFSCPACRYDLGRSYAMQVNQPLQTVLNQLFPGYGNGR
Chain of RNA-editing ligase 1, mitochondrial (P86926 whole entry): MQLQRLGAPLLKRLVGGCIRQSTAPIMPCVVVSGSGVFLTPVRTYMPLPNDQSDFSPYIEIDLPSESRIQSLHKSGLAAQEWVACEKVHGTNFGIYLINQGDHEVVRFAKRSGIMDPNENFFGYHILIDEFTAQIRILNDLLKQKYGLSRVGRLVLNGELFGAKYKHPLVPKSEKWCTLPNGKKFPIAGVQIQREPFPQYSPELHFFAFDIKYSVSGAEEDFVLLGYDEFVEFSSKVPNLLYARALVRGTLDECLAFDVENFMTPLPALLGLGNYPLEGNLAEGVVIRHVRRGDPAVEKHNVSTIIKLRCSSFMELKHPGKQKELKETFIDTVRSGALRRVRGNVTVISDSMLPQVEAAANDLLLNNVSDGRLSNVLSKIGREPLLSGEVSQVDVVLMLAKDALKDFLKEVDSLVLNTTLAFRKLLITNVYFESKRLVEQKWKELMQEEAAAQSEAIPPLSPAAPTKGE
Chain of 5-hydroxytryptamine receptor 5A (P47898 whole entry, the tested form may be a part): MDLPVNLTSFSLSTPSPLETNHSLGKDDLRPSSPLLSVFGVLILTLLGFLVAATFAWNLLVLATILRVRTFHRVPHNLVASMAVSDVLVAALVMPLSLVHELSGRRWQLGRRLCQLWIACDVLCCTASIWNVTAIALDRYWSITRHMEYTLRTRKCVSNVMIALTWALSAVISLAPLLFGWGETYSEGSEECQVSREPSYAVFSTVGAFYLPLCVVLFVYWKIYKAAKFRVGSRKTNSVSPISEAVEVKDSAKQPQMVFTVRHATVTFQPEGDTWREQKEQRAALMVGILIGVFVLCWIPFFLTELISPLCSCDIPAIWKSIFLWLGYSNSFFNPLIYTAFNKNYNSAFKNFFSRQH
Chain of Delta-type opioid receptor (P41143 whole entry): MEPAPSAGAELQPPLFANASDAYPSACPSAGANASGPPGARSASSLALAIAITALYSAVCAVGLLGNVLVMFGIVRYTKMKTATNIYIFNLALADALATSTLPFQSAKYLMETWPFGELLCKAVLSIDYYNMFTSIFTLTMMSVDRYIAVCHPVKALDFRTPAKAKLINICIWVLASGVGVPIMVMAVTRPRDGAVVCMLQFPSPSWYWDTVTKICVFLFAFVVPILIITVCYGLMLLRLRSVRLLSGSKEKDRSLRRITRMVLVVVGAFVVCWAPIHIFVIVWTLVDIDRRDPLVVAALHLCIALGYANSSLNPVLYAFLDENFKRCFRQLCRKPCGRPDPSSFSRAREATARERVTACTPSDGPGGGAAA
Chain of Paired box protein Pax-8 (Q06710 whole entry): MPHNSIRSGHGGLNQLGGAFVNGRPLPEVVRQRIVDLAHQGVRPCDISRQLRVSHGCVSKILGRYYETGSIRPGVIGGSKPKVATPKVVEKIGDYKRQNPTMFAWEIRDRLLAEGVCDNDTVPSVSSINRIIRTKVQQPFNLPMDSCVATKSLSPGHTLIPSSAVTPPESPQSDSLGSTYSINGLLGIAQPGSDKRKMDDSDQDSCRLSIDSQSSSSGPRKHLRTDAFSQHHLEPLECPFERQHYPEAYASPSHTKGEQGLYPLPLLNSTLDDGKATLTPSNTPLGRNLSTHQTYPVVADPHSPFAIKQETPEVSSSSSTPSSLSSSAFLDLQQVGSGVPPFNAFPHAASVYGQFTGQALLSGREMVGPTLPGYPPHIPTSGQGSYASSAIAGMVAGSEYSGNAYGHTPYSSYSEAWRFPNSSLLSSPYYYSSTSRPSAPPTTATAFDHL
Chain of Mu-type opioid receptor (P35372 whole entry): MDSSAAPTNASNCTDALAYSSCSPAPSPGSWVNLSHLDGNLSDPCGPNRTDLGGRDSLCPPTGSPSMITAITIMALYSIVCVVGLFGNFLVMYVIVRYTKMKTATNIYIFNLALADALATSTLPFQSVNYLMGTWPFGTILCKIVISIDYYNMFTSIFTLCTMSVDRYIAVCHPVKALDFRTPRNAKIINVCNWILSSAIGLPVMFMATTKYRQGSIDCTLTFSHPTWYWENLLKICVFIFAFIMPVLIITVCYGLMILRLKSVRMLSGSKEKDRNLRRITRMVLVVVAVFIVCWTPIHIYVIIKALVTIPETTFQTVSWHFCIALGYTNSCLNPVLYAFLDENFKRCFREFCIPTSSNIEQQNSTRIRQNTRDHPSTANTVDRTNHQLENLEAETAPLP
Chain of Beta Lactamase (Q932Y6 whole entry): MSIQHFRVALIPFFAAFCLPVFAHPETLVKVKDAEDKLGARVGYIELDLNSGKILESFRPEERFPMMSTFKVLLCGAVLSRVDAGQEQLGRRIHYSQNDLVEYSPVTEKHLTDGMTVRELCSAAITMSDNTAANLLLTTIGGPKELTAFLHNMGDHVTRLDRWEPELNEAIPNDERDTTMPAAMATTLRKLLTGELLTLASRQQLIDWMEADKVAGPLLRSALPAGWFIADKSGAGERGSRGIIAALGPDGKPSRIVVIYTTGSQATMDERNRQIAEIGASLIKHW
Chain of Ubiquitin carboxyl-terminal hydrolase BAP1 (Q92560 whole entry): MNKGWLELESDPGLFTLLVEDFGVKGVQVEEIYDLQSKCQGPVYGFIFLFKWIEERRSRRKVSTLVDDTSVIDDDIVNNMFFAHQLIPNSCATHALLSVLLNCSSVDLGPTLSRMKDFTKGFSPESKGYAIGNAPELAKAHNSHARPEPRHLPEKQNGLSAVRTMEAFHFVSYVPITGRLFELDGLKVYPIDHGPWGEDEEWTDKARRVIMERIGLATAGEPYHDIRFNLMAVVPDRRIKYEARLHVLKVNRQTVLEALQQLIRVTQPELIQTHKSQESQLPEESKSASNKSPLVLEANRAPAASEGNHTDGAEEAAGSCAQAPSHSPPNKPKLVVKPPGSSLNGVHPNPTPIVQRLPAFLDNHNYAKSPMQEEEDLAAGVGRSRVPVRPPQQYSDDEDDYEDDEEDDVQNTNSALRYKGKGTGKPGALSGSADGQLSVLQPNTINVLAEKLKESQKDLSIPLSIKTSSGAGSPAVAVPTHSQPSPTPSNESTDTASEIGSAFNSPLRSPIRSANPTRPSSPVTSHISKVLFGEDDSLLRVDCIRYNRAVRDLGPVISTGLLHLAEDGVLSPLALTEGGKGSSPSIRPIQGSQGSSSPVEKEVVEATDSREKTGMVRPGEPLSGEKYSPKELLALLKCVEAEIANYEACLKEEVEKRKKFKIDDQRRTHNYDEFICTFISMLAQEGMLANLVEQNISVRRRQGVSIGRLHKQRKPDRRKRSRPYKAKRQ

- IC50 [1]: > 50 µM (not active)
Structure (SMILES): Nc1c(C(O)(C(F)(F)F)C(F)(F)F)ccc2ccccc12

Structure (SMILES): Cc1cc2[nH]c3c4ccccc4nc(C)c3c2cc1C
- AC50 [2]: 10.8 µM (active)
- IC50 [3]: 38.9 µM (active)
- AC50 [4]: 3.57 µM (active)
- EC50 [5]: > 92.4 µM (inactive)
- IC50 (Beta Lactamase): 23.6 µM (inactive)
- EC50 [6]: > 92.4 µM (inactive)
- IC50 [7]: 15.5 µM (inactive)
- IC50 [8]: 19 µM (inactive)
- CC50 [9]: 12.4 µM (active)
- EC50 (Mu-type opioid receptor): > 92.4 µM (inactive)

Structure (SMILES): COc1ccc(CN(C)C[C@H]2OCCCC[C@H](C)Oc3ccc(NC(=O)Nc4ccc(C(F)(F)F)cc4)cc3C(=O)N([C@H](C)CO)C[C@H]2C)cc1
- AC50 [10]: 54.7 µM (active)
- AC50 [11]: 26.4 µM (active)
- AC50 [12]: 59 µM (active)
- AC50 (Paired box protein Pax-8): 9.16 µM (active)

Structure (SMILES): NC[C@@H]1O[C@H](O[C@H]2[C@H](O)[C@H](O[C@H]3[C@@H](O)[C@H](N)C[C@H](N)[C@H]3O[C@H]3O[C@H](CN)[C@H](O)[C@H](O)[C@H]3N)O[C@@H]2CO)[C@@H](N)[C@@H](O)[C@@H]1O
- IC50 [13]: > 40 µM (inactive)
- IC50 [14]: > 40 µM (inactive)

- IC50 [15]: > 96.6 µM (inactive)
Structure (SMILES): COC(=O)C1=C(C)N(Cc2cccc(C(F)(F)F)c2)C(NCc2ccccc2)=NC1c1ccccc1C(F)(F)F (centres undefined)

Structure (SMILES): Cc1ccccc1-c1ccc([C@@H]2[C@H](CO)N3CCCCN(S(=O)(=O)Cc4ccccc4)C[C@@H]23)cc1
- AC50 [16]: 0.878 µM (active)

Structure (SMILES): O=C1C(Nc2ccc(F)cc2)=C(N2CCCCC2)C(=O)c2ccccc21
- AC50 [17]: 57.6 µM (active)
- AC50 [18]: 8.63 µM (active)
- AC50 [19]: 14.1 µM (active)
- AC50 [20]: 25.8 µM (active)
- AC50 [21]: 8.64 µM (active)
- AC50 [22]: 27.4 µM (active)
- AC50 [23]: 14.1 µM (active)
- AC50 [24]: 2.24 µM (active)

Structure (SMILES): Oc1ccc(CCNCCCCCCNCCc2ccccc2)cc1O [DOPEXAMINE]
- IC50 [25]: > 33.3 µM (inactive)
- IC50 (cells): > 33.3 µM (inactive)
